Where two headings read alike, the source gives them in different places.

The target in test [1] is W9 probe (isolated 9 bp AT-tract). The test can be described thus: DNase I footprinting on W9 probe. It is filed as binding. To be noted: for Kd: apparent dissociation constant, read-out: Kdapp W9. The source says: To target AT-tracts, the principal component of satellite I, III and SARs), a pyrrole pentamer was synthesized by facile solid phase chemistry in which five pyrrole (Py) aromatic amino acid rings are linked covalently by amide bonds (Baird and Dervan, 1996). The resulting compound, termed P7 had the sequence Py-Py-Py-Py-Py-β-Dp (where β=β-alanine and Dp=dimethylaminopropylamide). This compound is expected to bind 7 successive A or T base pairs (Ws) according to the n+1 rule where n is the number of amides (Youngquist and Dervan, 1985). The DNA binding properties of P7 were assessed by DNAse I footprinting experiments using a synthetic probe containing isolated, repeated AT-tracts of 9 Ws (W9, FIG. 2A). By visual inspection, the apparent dissociation constant (Kapp) for P7 was estimated to be approximately 80 nM (Table 3).
were hybridized to obtain the W9 probe, oligomerized by ligation and digested with BamHl and BglII to obtain different tandem repeats. The following oligonucleotides were prepared identically:
(§1) Fragments were purified on low-melt agarose gels and then cloned into a modified pSP64 vector, cut by BamHI and BglII. End-labeling was carried out following digestion with HindIII and a fill-in reaction with Klenow DNA polymerase. The labeled plasmid was cut with PvuII and the target fragments purified from low-melting agarose gels. The 657 bp EcoRl/Hinf1 fragment of the Drosophila histone SAR was cloned into the SmaI site of the modified pSP64 plasmid. This SAR probe was end-labeled following digestion with EcoRl, then cut with ClaI and the resulting 347 bp fragment purified from low-melting agarose gels.
(§2) All reactions were performed in a total volume of 40 μl. A polyamide stock solution or buffer (for reference lanes) was added to an assay buffer containing 20 kcpm radiolabeled DNA, affording final concentrations of 10 mM Tris-HCl (pH 7.4), 10 mM KCl, 10 mM MgCl, 5 mM CaCl2, 0.5 mM EDTA, 0.5 mM EGTA, 1 mM DTT and 0.1% digitonine. The solutions were allowed to equilibrate for at least 2 h at room temperature. Footprinting reactions were initiated by the addition of 2 μl of a DNase stock solution (containing −100 pg DNase I in buffer) and allowed to proceed for 2 min at room temperature. The reactions were stopped by addition of 10 μl of a solution containing 1.25 M NaCl, 100 mM EDTA. Next, 5 μl of a 1% SDS solution was added, followed by 2 μl of a solution containing 1 μg poly(dA-dT), 1 μg salmon sperm DNA and 10 μg glycogen and the DNA was ethanol precipitated (20 min at −20° C.). The reactions were resuspended in 4 μl of 80% formamide loading buffer, denatured 10 min at 85° C., cooled on ice and electrophoresed on 8% polyacrylamide denaturing gels (5% cross-link, 8 M urea) at 30 W for 1 h. The gels were dried and exposed o/n at −70° C.

In test [2] the test system is Drosophila histone SAR probe (clustered/long AT-tracts). The test can be described thus: DNase I footprinting on SAR probe. In kind it is binding. Particulars: for Kd: apparent dissociation constant, SAR probe, read-out: Kdapp SAR. As for the experimental part: Since satellite I is composed of exclusively A and T bases, it constitutes an ‘ideal’ binding substrate for oligopyrroles. But to obtain SAR-specific compounds, molecules are required that preferably bind its clustered, irregularly spaced AT-tracts. Binding studies were carried out with P9, P7 and P13 on the Drosophila histone SAR probe which contains the following clustered/long AT-tracts (W15N3W17N5W16N13W8NW6 where N is any base, see also FIG. 3D). […] The ratio of these two affinities is used (KappW9/KappSAR) as an empirical measure of SAR specificity. For all compounds tested thus far, this value (referred to as SAR preference factor) was around unity (Table 3).
as §1, §2

For test [3], the system named is Drosophila satellite III chromatin (topoisomerase II cleavage). The experiment in a line: Topoisomerase II cleavage in satellite III of Kc nuclei in Xenopus egg extracts with VM26. It is filed as biochemical.
For test [4], the system named is sperm nuclei (condensation to chromatids). The test can be described thus: Chromosome condensation of sperm nuclei in mitotic Xenopus egg extracts. It is filed as biochemical. To be noted: for reversal of condensation inhibition by competitor oligonucleotide: Lex10 1 μM. The source says:
Mitotic Xenopus egg extracts convert added nuclei and sperm to chromatids in vitro. This chromosome condensation process requires topoisomerase II (Adachi et al., 1991), the protein complex condensin (Hirano T, 1997) and presumably other unidentified activities present in the mitotic extract. First, chromatin is remodeled and nuclei then proceed quite synchronously through a number of morphologically distinguishable steps (Hirano and Mitchison, 1991). Remodeling is morphological manifested by swelling of the nuclei which involves exchange of basic sperm-specific proteins for H2A/H2B and the incorporation of histone B4 (Dimitrov S, 1994).
Pyrrole drugs were added to the extract together with the sperm or after the remodeling step (at 10 minutes) and the extent of condensation was determined after 120 min. At this time point, the conversion of all sperm nuclei to clusters of individual chromatids is complete in the absence of drug (FIG. 8A, control). […] Addition of this compound at 125 to 250 nM (indicated) arrested this process at the so-called early ‘ruffle’ stage (FIG. 8A). These structures retain the swollen sperm shape, but they have peripheral blebs (ruffles) and a slightly heterogeneous interior. At this drug concentration, no chromatids are seen. If the concentration of Lex10 is raised to 500 nM, we observed an even earlier arrest as evidenced by the accumulation of swollen, remodeled sperm-shaped nuclei containing a homogeneous interior and smooth periphery. […] The monomer P7 was also tested but we observed no inhibition with the pyrrole pentamer up to the highest concentration (8 μM) tested. Condensation was inhibited at a ruffle stage with a P9 concentration of 2 μM (not shown).
In the experiment shown in FIG. 8B, Lex10 was added to the extract at a final concentration of 1 μM (several fold above the minimum inhibitory concentration) after which competitor oligonucleotides were added at different stages. Three different oligonucleotides of similar size were used: the SAR oligo contains two large clustered AT-tracts of the SAR probe (W17N5W15), the W9 oligo has a single AT tract of 9 base pairs and the GAGAA oligo harbors 5 tandem GAGAA repeats.
Topoisomerase II inhibition and chromosome assembly were as described previously (Girard et al., 1998, Strick and Laemmli, 1995). Affinity cleavage experiments was performed as described elsewhere (Turner et al., 1997).

For “PyPyPy-β-PyPyPy-β-Dp-E-AoAoAo-PyPyPyPyPy-β-Dp [Lex10]”, in test [1] (W9 probe), the Kd is 0.02 µM. In addition, in test [2], the “affinity for SAR lower than that of MATH20” value is reported as “approximately 100” and the Kd worked out at 0.00028 µM. In test [3], the “concentration at which inhibition of topoisomerase II cleavage occurs abruptly” value is “around 600 nM” and the “stimulation of topoisomerase II cleavage in satellite III” value (“stimulation” for short) is listed as “does not stimulate”. For the same molecule, the “inhibition of topoisomerase II cleavage in satellite III” value in test [3] (1 μM) is “inhibits cleavage of topoisomerase II completely”. Further, in test [4], the “concentration giving even earlier arrest (swollen, remodeled sperm-shaped nuclei)” value came out at 500 nM and the “higher concentration than MATH20 for inhibition of condensation” value is recorded as 80 fold. For the same molecule, in test [4] (360 ng of W9 or GAGAA oligo), the “reversal of condensation inhibition by competitor oligonucleotide” value is given as “did not reverse the block”. The “reversal of condensation inhibition by competitor oligonucleotide” value in test [4] (50 to 100 ng SAR oligo) is on record as “completely reversed”.

With (Py)3-β-(Py)3-(Ao)3-(Py)5-β-Dp [Lex18], the Kd in test [1] (W9 probe) turned out to be 0.1 µM. In addition, in test [2], the “Ratio (KappW9/KappSAR, SAR preference factor)” value was found to be 100 and the Kd amounted to 0.001 µM.

In the case of “F*-γ-(Py)5-β-Dp-Glu-(Ao)3-(Py)5-β-Dp [Lex9F]”, the Kd in test [1] (W9 probe) is 2.5 µM; in test [2] it was 0.1 µM. In addition, the “Ratio (KappW9/KappSAR, SAR preference factor)” value in test [2] is on record as 25.

As to (Py)3-β-(Py)3-β-Dp-F* [Compound P9F], the Kd in test [1] (W9 probe) came to 0.004 µM. In addition, in test [2], the “Ratio (KappW9/KappSAR, SAR preference factor)” value was 4; the “increase of SAR specificity upon fluorescein tagging” value is on record as “about 4 fold”; the Kd turned out to be 0.001 µM.

Consider `CN(C)CCCNC(=O)CCNC(=O)c1cc(NC(=O)c2cc(NC(=O)c3cc(NC(=O)CCNC(=O)c4cc(NC(=O)c5cc(NC(=O)c6cc(NC(=O)CCNC(=O)c7cc(NC(=O)c8cc(NC(=O)c9cccn9C)cn8C)cn7C)cn6C)cn5C)cn4C)cn3C)cn2C)cn1C` [Compound P13, PyPyPy-β-PyPyPy-β-PyPyPy-β-Dp], for which the “ligand concentration giving nearly complete protection (coating) of the W9 probe” value in test [1] is listed as no less than 62.5 nM. Also, in test [1] (W9 probe, flanking mixed sequences), the “GC tolerance / AT-specificity of footprint” value is given as “marked tendency to protect GC base pairs”. For the same molecule, the Kd in test [1] (W9 probe) came to 0.001 µM. In test [2], the “Ratio (KappW9/KappSAR, SAR preference factor)” value is reported as 0.8 and the Kd was determined as 0.00125 µM.

Regarding “PyPyPyPyPy-β-Dp-E-AoAoAo-PyPyPyPyPy-β-Dp [Lex9]”, the Kd in test [1] (W9 probe) is 0.0035 µM; in test [2], 0.00175 µM. Moreover, in test [2], the “Ratio (KappW9/KappSAR, SAR preference factor)” value came out at 2. Also, the “SAR specificity factor after tagging with fluorescent label” value in test [2] (value of the tagged derivative) worked out at 25. Further, the “stimulation” value in test [3] is given as “much reduced cleavage stimulation”. Also, the inhibition of condensation result in test [4] (250 to 500 nM) is listed as “Little inhibition”.

As to “F*-γ-(Py)3-β-(Py)3-β-Dp-Glu-(Ao)3-(Py)5-β-Dp [Lex10F]”, the Kd in test [1] (W9 probe) stood at 0.02 µM. The “reduction of binding affinity upon fluorescein tagging” value in test [1] (versus untagged compound) is “only a minor reduction in affinity”. For the same molecule, in test [2], the “Ratio (KappW9/KappSAR, SAR preference factor)” value is reported as 20 and the Kd was 0.001 µM.

As to `CN(C)CCCNC(=O)CCNC(=O)c1cc(NC(=O)c2cc(NC(=O)c3cc(NC(=O)c4cc(NC(=O)c5cccn5C)cn4C)cn3C)cn2C)cn1C` [Compound P7, Py-Py-Py-Py-Py-β-Dp], the Kd in test [1] (W9 probe, listed as P10) was 0.08 µM; in test [1] (W9 probe), roughly 0.08 µM; in test [2], 0.035 µM. In test [2], the “Ratio (KappW9/KappSAR, SAR preference factor)” value is 2.3. Besides, in test [3], the “stimulation” value is given as “massively stimulated”. The “concentration inhibiting chromosome condensation (block at ruffle stage)” value in test [4] (120 min) was greater than 8 µM.

Turning to F*-γ-(Py)5-β-Dp [Compound P7F], the Kd in test [1] (W9 probe) was found to be 3 µM; in test [2], 1.2 µM. For the same molecule, in test [2], the “Ratio (KappW9/KappSAR, SAR preference factor)” value came to 2.5.

For the origin of these results see patent US20020169296A1, “Linked, sequence-specific DNA-binding molecules” (priority 2000, published 2002).
